Source: patent publication US11882828B2, “Mosquito vector control compositions, methods and products utilizing same” (priority 2015, dated 2024)

How the values were obtained:
[1] = test system: Aedes aegypti (Yellow fever mosquito); experiment: whole plant or invertebrate; conditions: Aedes aegypti
Description: […] Once the deposits were dry, five non-blood fed adult female Aedes aegypti (between two to five days old) were added to each well, and sustained with a 10% sucrose solution in a cotton wool plug. Assessment of the knockdown after 1 hour, and mortality after 48 hours was carried out.
(§1) In case of multiple tests, the mean value is reported.

An. Gambiae Kisumu sus = experiment: Example B4: cross resistance study, 6-well plate; assay type: in vivo
Description: In each study, a set of plates were infested with a known insecticide susceptible strain of mosquitoes from the same genera as the resistant strains.
Assessment of the knockdown after 60 minutes and mortality after 24 hours was carried out. Each treatment was replicated a minimum of four times, with the mean knockdown or mortality recorded.
A comparison of the knockdown and mortality of the resistant strain of mosquitoes was made to that of the susceptible to identify evidence of cross resistance.

[2] = test system: Anopheles stephensi (Indian malaria mosquito); experiment: whole plant or invertebrate; conditions: Anopheles stephensi
Description: […] Once the deposits were dry, five non-blood fed adult female Anopheles stephensi (between two to five days old) were added to each well, and sustained with a 10% sucrose solution in a cotton wool plug. Assessment of the knockdown after 1 hour, and mortality after 48 hours was carried out.
as §1

## CO/C=C(/C(=O)OC)c1ccccc1Oc1nc(C(C)(C)C)ns1 [Compound 7, Methyl (E)-2-[2-[(3-tert-butyl-1,2,4-thiadiazol-5-yl)oxy]phenyl]-3-methoxy-prop-2-enoate]
[1]; 1 h, read-out: Knockdown
  pest or weed control at 20 ppm: 100%
[1]; 48 h
  mortality at 20 ppm: 100%
An. Gambiae Kisumu sus; 2.50 ppm, after 60 minutes, Kisumu sus
  Knockdown: 100%
An. Gambiae Kisumu sus; Anopheles gambiae, 24 h
  mortality at 2.5 ppm: 100%
[2]; 1 h, read-out: Knockdown
  pest or weed control at 20 ppm: 67%
[2]; 48 h
  mortality at 20 ppm: 100%
